The nature of data set [1]: Solubility in pH 7, 50 mM phosphate buffer. The format is physicochemical. The settings on record: thermodynamic from solid. As for the experimental part:
The samples are capped and stirred via magnetic stir bars for 24 to 48 hours at room temperature. Samples are filter centrifuged (800×g) for 5-10 minutes through Millipore Ultrafree-MC 0.22 Micron filter units. The supernate is analyzed by either UV or HPLC to quantitate the drug concentration.

Another data set relates to S. Pneumoniae UC ® 9912. In words: Minimum inhibitory concentration (MIC) by agar dilution. The format is cell-based. To be noted: Streptococcus pneumoniae, UC9912. As for the experimental part:
(§1) The oxazolidinone compounds of the present invention have useful activity against a variety of microorganisms. The in vitro activity of compounds of the present invention are assessed by standard testing procedures such as the determination of minimum inhibitory concentration (MIC) by agar dilution as described in “Methods for Dilution Antimicrobial Susceptiblity Tests for Bacteria That Grow Aerobically” (MFT) published January 1993 by the National Committee for Clinical Laboratory Standards (NCCLS), 771 East Lancaster Avenue, Villanova, Pa. 19084, USA. The activity of selected compounds of the present invention against Staphylococcus aureus and Streptococcus pneumoniae are shown in Table 2.

The test system of the next data set is S. Aureus UC ® 9213. The description is as above. The format is cell-based. To be noted: Staphylococcus aureus, UC9213. As for the experimental part:
as §1

A short description of data set [2]: Reduction of the N-oxide in vivo following intravenous and oral administration to rats. Set-up: species or system male Sprague-Dawley rats. The settings on record: rat. As for the experimental part: The rate and extent of reduction of the N-oxide of Example 2 was investigated in vivo using the following procedures: Six male Sprague-Dawley rats are used for this study. Three rats are given a single intravenous 10 mg/kg dose of the N-oxide and three rats are given a single oral 25 mg/kg dose of the N-oxide. Blood is collected pre-dose and up to 24 h post dose. The plasma is analyzed for the N-oxide and the parent amine by LC-MS.

The mark [3] stands for this setting: aqueous buffer, pH 7, 50 mM phosphate buffer or other vehicle, room temperature, 24 to 48 hours, read-out: N-Oxide Solubility.
Setting [4] is: aqueous buffer, parent amine of the example's N-oxide, pH 7, 50 mM phosphate buffer or other vehicle, room temperature, 24 to 48 hours, read-out: Parent Amine Solubility.

Experimental findings from US6512112B2, “Aminoaryl oxazolidinone N-oxides” (Pharmacia & Upjohn Company, priority 1995, dated 2003) are described below.

Converted amounts (≈) assume the structure as drawn. Like-named read-outs stand apart in the source and are kept apart here.

`CC(=O)NC[C@H]1CN(c2ccc([N+]3([O-])CCN(C(=O)CO)CC3)c(F)c2)C(=O)O1` (hydrate or solvate) [Example 1, (S)-N-[[3-[3-fluoro4-[4-(hydroxyacetyl)-1-piperazinyl]phenyl]-2-oxo-5-oxazolidinyl]-methyl]acetamide N-oxide]: the melting point lay in the range of 158 to 160 °C.

Take `CC(=O)NC[C@H]1CN(c2ccc([N+]3([O-])CCN(C(=O)CO)CC3)c(F)c2)C(=O)O1` [Example 1, (S)-N-[[3-[3-fluoro4-[4-(hydroxyacetyl)-1-piperazinyl]phenyl]-2-oxo-5-oxazolidinyl]-methyl]acetamide N-oxide]: the solubility in data set [1] (setting [3]) is 348000 µg/mL (≈ 848 mM). Also, the figures for the minimal inhibitory concentration (MIC) in the data set on S. Pneumoniae UC ® 9912 and against S. Aureus UC ® 9213 were 0.5 µg/mL (≈ 0.00122 mM) and 2 µg/mL (≈ 0.00487 mM), respectively.

The compound `CC(=O)NC[C@H]1CN(c2ccc([N+]3([O-])CCOCC3)c(F)c2)C(=O)O1` [Example 2] came in with a melting point of 202 to 204 °C. For the same compound, the “N-oxide found in plasma” value in data set [2] (10 mg/kg intravenous N-oxide, first time point immediately post injection, LC-MS) is on record as “Only traces”. Also, in data set [2] (N-oxide 10 mg/kg intravenous and 25 mg/kg oral, same doses and protocol), the “Cmax, Tmax and AUC values for the parent amine compared with direct administration of the parent amine” value was “very similar”. For the same compound, the “conversion of the N-oxide to the parent amine in vivo” value in data set [2] (intravenous and oral dosing) is “rapid and essentially quantitative”. In addition, the solubility in data set [1] (setting [3]) was found to be 534000 µg/mL (≈ 1510 mM). Besides, in data set [1] (water, value stated, read-out: water solubility), the solubility amounted to 409000 µg/mL (≈ 1160 mM). The compound also displayed a minimal inhibitory concentration (MIC) in the data set with S. Pneumoniae UC ® 9912 of 1 µg/mL (≈ 0.00283 mM). The lowest concentration to inhibit growth in the data set on S. Aureus UC ® 9213 (MIC) was 4 µg/mL (≈ 0.0113 mM).

For the compound `CC(=O)NC[C@H]1CN(c2cc(F)c([N+]3([O-])CCN(C(=O)CO)CC3)c(F)c2)C(=O)O1` [Example 4, (S)-N-[[3-[3,5-difluoro-4-[4-(hydroxyacetyl)-1-piperazinyl]phenyl]-2-oxo-5-oxazolidinyl]-methyl]acetamide N-oxide], the melting point is 100 to 105 °C. In the data set on S. Pneumoniae UC ® 9912, this compound showed an MIC of 0.5 µg/mL (≈ 0.00117 mM). This compound also returned an MIC against S. Aureus UC ® 9213 of 2 µg/mL (≈ 0.00467 mM).

`CC(=O)[NH+]([O-])C[C@@H]1CN(c2ccc(N3CCN(S(=O)(=O)CC#N)CC3)c(F)c2)C(=O)O1` (stereo partly drawn) [Example 5, (S)-N-[[3-[4-[4-[(cyanomethyl)sulfonyl]-1-piperazinyl]3-fluorophenyl]-2-oxo-5-oxazolidinyl]methyl]acetamide N-oxide] gave a melting point of 153 to 156 °C. The same compound yielded an MIC in the data set with S. Pneumoniae UC ® 9912 of 0.5 µg/mL (≈ 0.0011 mM). Moreover, in the data set on S. Aureus UC ® 9213, the MIC worked out at 4 µg/mL (≈ 0.00878 mM).

As to `CC(=O)NC[C@H]1CN(c2ccc([N+]3([O-])CCN(S(=O)(=O)c4ccccc4C#N)CC3)c(F)c2)C(=O)O1` [Example 6, (S)-N-[[3-[4-[4-[(2-cyanophenyl)sulfonyl]-1-piperazinyl]-3-fluorophenyl]-2-oxo-5-oxazolidinyl]methyl]acetamide N-oxide], the melting point was 190 to 192 °C. Moreover, the solubility in data set [1] (setting [3]) came out at 1100 µg/mL (≈ 2.13 mM). This compound had an MIC with S. Pneumoniae UC ® 9912 of 0.25 µg/mL (≈ 0.000483 mM). Further, the MIC against S. Aureus UC ® 9213 turned out to be 2 µg/mL (≈ 0.00386 mM).

`CC(=O)NC[C@H]1CN(c2ccc(N3CCN(C(=O)CO)CC3)c(F)c2)C(=O)O1` [parent amine of Example 1, (S)-N-[[3-[3-Fluoro-4-[4-(hydroxyacetyl)-1-piperazinyl]-phenyl]-2-oxo-5-oxazolidinyl]methyl]-acetamide, reference compound]: in data set [1] (setting [4]), the solubility was 4200 µg/mL (≈ 10.6 mM).

For `CC(=O)NC[C@H]1CN(c2ccc(N3CCOCC3)c(F)c2)C(=O)O1` [parent amine of Example 2, (S )-N-[[3-[3 -Fluoro-4-(4-morpholinyl)phenyl]-2-oxo-5-oxazolidinyl]methyl]-acetamide, reference compound], the “time parent amine detected in plasma post dosing” value in data set [2] (after dosing of the N-oxide, lower limit of quantitation ≈0.01 μg/mL) is listed as “up to 10 h”.

Take `CC(=O)NC[C@H]1CN(c2ccc(N3CCN(S(C)(=O)=O)CC3)c(F)c2)C(=O)O1` [parent amine of Example 3, (S)-N-[[3-[3-fluoro-4-[4-(methylsulfonyl)-1-piperazinyl]phenyl]-2-oxo-5-oxazolidinyl]-methyl]acetamide, reference compound]: the solubility in data set [1] (setting [4]) worked out at 280 µg/mL (≈ 0.676 mM).

Turning to `CC(=O)NC[C@H]1CN(c2ccc(N3CCN(S(=O)(=O)c4ccccc4C#N)CC3)c(F)c2)C(=O)O1` [parent amine of Example 6, (S)-N-[[3-[4-[4-[(2-cyanophenyl)sulfonyl]-1-piperazinyl]-3-fluorophenyl]-2-oxo-5-oxazolidinyl]methyl]acetamide, reference compound], the solubility in data set [1] (setting [4]) was determined as 31 µg/mL (≈ 0.0618 mM).
